Results as given in patent publication US20100240645A1, “COMBINATION OF CHECKPONIT KINASE (CHK) AND TELANGIECTASIA MUTATED (ATM) INHIBITORS FOR THE TREATMENT OF CANCER” (ASTRAZENECA AB, priority 2007, published 2010).
Where two headings read alike, the source gives them in different places.

Tests used:
SW620 cell line = experiment: MTS colorimetric cell viability assay, CHK-ATM combination, SW620; conditions: for IC50: Homo sapiens
NCI-H460dnp53 cell line = experiment: MTS colorimetric cell viability assay, CHK-ATM combination, NCI-H460dnp53

SMILES: NC(=O)Nc1cc(-c2cccc(F)c2)sc1C(=O)N[C@H]1CCCNC1 [CHK inhibitor, 5-(3-Fluoro-phenyl)-3-ureido-thiophene-2-carboxylic acid (S)-piperidin-3-ylamide]
- activity of CHK inhibitor as a single agent at the constant concentration used (SW620 cell line; SW620, 0.28 uM, single agent, previously determined): no activity
- activity of CHK inhibitor as a single agent at the constant concentration used (NCI-H460dnp53 cell line; NCI-H460dnp53, 0.33 uM, single agent, previously determined): no activity

SMILES: CC1CN(CC(=O)Nc2ccc3c(c2)Cc2cccc(-c4cc(=O)cc(N5CCOCC5)o4)c2S3)CC(C)O1 (stereo not shown) [ATM inhibitor, 2-[(2,6)-2,6-dimethylmorpholin-4-yl]-N-[5-(6-morpholin-4-yl-4-oxo-4H-pyran-2-yl)-9H-thioxanthen-2-yl]acetamide]
- IC50 (SW620 cell line; SW-620, 96 h, read-out: IC50 of ATM inhibitor, ATM inhibitor + CHK inhibitor Simultaneous): 1.9 µM
- IC50 (SW620 cell line; SW-620, read-out: IC50 of ATM inhibitor alone): 7 µM
- IC50 (SW620 cell line; SW-620, read-out: IC50 of ATM inhibitor, ATM inhibitor followed by CHK inhibitor): 3.4 µM
- IC50 (SW620 cell line; SW-620, read-out: IC50 of ATM inhibitor, CHK inhibitor followed by ATM inhibitor): 6 µM
- IC50 (NCI-H460dnp53 cell line; 96 h, read-out: IC50 of ATM inhibitor, ATM inhibitor + CHK inhibitor Simultaneous): 1.7 µM
- IC50 (NCI-H460dnp53 cell line; read-out: IC50 of ATM inhibitor alone): > 30 µM
- IC50 (NCI-H460dnp53 cell line; read-out: IC50 of ATM inhibitor, ATM inhibitor followed by CHK inhibitor): 3.8 µM
- IC50 (NCI-H460dnp53 cell line; read-out: IC50 of ATM inhibitor, CHK inhibitor followed by ATM inhibitor): 4.4 µM
